Measurements published in patent US10905656B2, “Methods and compositions for treating arteriosclerotic vascular diseases” (GOLDEN BIOTECHNOLOGY CORPORATION, priority 2012, dated 2021).

How the values were obtained:
[1] = test system: A7r5 cells (rat aortic smooth muscle cells); test: MTT assay, cytotoxic effect on smooth muscle cells; assay type: cell-based; settings: 0 μg/ml-3 μg/ml, 24 hours
Description: (§1) MTT assay is commonly used to determine cell proliferation, percent of viable cells, and cytotoxicity. MTT (3[4,5-dimethylthiazol-2-yl]2,5-diphenyltetrazolium bromide) is a yellow dye, which can be absorbed by the living cells and be reduced to purplish blue formazan crystals by succinate tetrazolium reductase in mitochondria. Formazan formation can therefore be used to assess and determine the survival rate of cells. A solubilization solution (usually either dimethyl sulfoxide, an acidified ethanol solution, or a solution of the detergent sodium dodecyl sulfate in diluted hydrochloric acid) is added to dissolve the insoluble purple formazan product into a colored solution. The absorbance of this colored solution can be quantified by measuring at a certain wavelength (usually between 500 and 600 nm) by a spectrophotometer. The more surviving cells, the higher the absorbance. The percentage of cell survival (%)=OD value of experimental group÷OD value of control group×100%. Procedure
1. […]
3. […] The survival rate of cells was calculated based on the measurement of absorption at the 570 nm wavelength by ELISA reader.
(§2) Potential cytotoxicity of Compound 1 to smooth muscle cells was tested. […] As shown in FIGS. 2A/2B, the cytotoxic effect of Compound 1 at different concentrations on smooth muscle cells (A7r5) was determined via MTT assay (FIG. 2A) and LDH assay (FIG. 2B).

LDLR mRNA = LDLR mRNA expression in HepG2 by RT-PCR; assay type: cell-based, human; settings: HepG2, after addition of compound
Protocol: FIG. 10A-B show results of LDLR mRNA expression in HepG2 cell line induced by an exemplary cyclohexenone Compound 1. HepG2 cell line was serum-starved overnight and challenged with 20 μM Compound 1 at indicated time intervals (1A). Cells were then collected and the mRNA expression level of LDLR and GAPDH (internal control) were detected by RT-PCR. The relative expression level of LDLR to GAPDH was quantified by densitometry (1B). Experiments were conducted in triplicate. Bar represented as mean±SEM. * indicates p<0.05 and ** indicates p<0.01.
HepG2 cells were cultured in MEM alpha medium (Invitrogen/Gibco BRL, Grand Island, N.Y., USA). Cells were cultured at 37° C. in 5% CO2 in culture media supplemented with 10% fetal bovine serum (Invitrogen/Gibco BRL) and 100 U/ml streptomycin and penicillin (Invitrogen/Gibco BRL). For treatment, cells were seeded in six-well plates at 6.25×10^5 cells/well. On the following day, the media were changed to serum-free and the cells were serum-starved for 24 h. Compound 1 was dissolved in DMSO and diluted to the required concentration with serum-free medium. Cultures were then treated with diluted Compound 1 for the indicated time periods. […]
LDLR mRNA expression level was quantitative analysis by RT-PCR. […] The PCR products intensity was quantified by densitometry using Image-Pro Plus software (Media Cybernetics, Silver Spring, Md.).

ERK1/2 = ERK1/2 phosphorylation in HepG2 by immunoblot; assay type: cell-based, human; settings: HepG2, 1 h, immunoblot p-ERK1/2
Protocol: FIG. 11A-B show illustrative effective results of the exemplary cyclohexenone Compound 1 stimulates ERK1/2 phosphorylation in HepG2 cell line. (2A), HepG2 cell line was serum-starved overnight and challenged with the indicated concentrations of Compound 1 for 1 h. Whole cell lysates were then immunoblotted with phosphor-ERK1/2 antibody and reprobed with β-actin antibody. Duplicated membrane was probed with ERK1/2 antibody. (2B), the relative expression level of p-ERK1/2 to β-actin was quantified by densitometry. Experiments were conducted in triplicate. Bar represented as mean±SEM.
HepG2 cells were cultured in MEM alpha medium (Invitrogen/Gibco BRL, Grand Island, N.Y., USA). […]
Sixty micrograms of total protein in cell lysate, which was measured using Bradford assay (Sigma-Aldrich, St. Louis, Mo.), was resolved on 12.5% SDS polyacrylamide gels. […] Blots were blocked with 3% BSA and probed with a 1:1,000 dilution of antibodies to phospho-p44/42 (ERK1/2)(Thr202/Tyr204) (Cell Signaling Technology, USA), p44/42MAPK(ERK1/2) (Cell Signaling Technology, USA) or β-actin (Sigma-Aldrich, St. Louis, Mo.), then horse radish-peroxidase (HRP)-conjugated secondary antibody and detected by 3,3′-diaminobenzidine (DAB) substrate kit for peroxidase (Vector Laboratories, Burlingame, Calif.). […]

[2] = test system: A7r5 cells (rat aortic smooth muscle cells); test: Lactate dehydrogenase (LDH) activity assay, cytotoxicity; assay type: cell-based; settings: 0 μg/ml-3 μg/ml, 24 hours
Description: Cells have plenty of lactate dehydrogenase (LDH). When cells are healthy, LDH cannot freely cross cell membrane. […] LDH activity in the culture medium is directly proportional to the number of dead cells. The cell viability can be measured quantitatively to detect absorbance by using colorimetric method at a wavelength of 492 nm. The change of the absorbance values come from the fact that LDH catalyzes the conversion of lactate to pyruvate with the concomitant production of NADH. The NADH, in the presence of diaphorase and tetrazolium salt INT, is used to drive the diaphorase-catalyzed production of red formazan product. The present experiment utilizes Cytotoxicity Assay Kit (Promega) to conduct culture medium LDH Quantitation assay.
(§3) 1. Adherence of cells: 2×10^4 cells/ml/well of A7r5 cells were seeded onto a 24-well plate and incubated at 37° C. for 24 hours.
2. Dosing: 500 ul/well different concentrations of compound 1 were formulated in culture medium containing 10% FBS/DMEM and incubated for 24 hours. […]
3. […] Absorbance was measured by ELISA reader at the 490 nm wavelength.
as §2

[3] = test system: PDGF-stimulated A7r5 cells; test: Wound scratching test, PDGF-stimulated smooth muscle cell migration; assay type: cell-based, Rattus norvegicus; settings: 3 μg/ml, 24 hours
Protocol: 1. A7r5 cells (5×10^6 cells/ml) were seeded onto a 6-well cell culture plate and incubated at 37° C. overnight.
2. 1×PBS was used to wash the wells twice. Compound 1 with different concentrations in DMEM culture medium containing 1% FBS was added and pretreated for 20 hours.
3. A cross-shape acellular space was created by a sterile 200 μl pipette tip and washed twice with 1×PBS.
4. After removing PBS, 2 ml PDGF in DMEM culture medium containing 1% FBS were added. The cells were photographed by a microscope at 0, 6, 12 and 24 hours, respectively from the time of adding PDGF.
The inhibition of Compound 1 on migration of smooth muscle cells (A7r5 cells) was investigated in a wound scratching test by measuring PDGF-stimulated cell migration distance. The PDGF-stimulated cell culture without Compound 1 treatment was used as positive control.

[4] = test system: mice with carotid artery ligation; test: Carotid artery ligation model, neointima formation; assay type: in vivo, C57BL/6J mice; settings: 60 mg/kg body weight oral gavage, from three days before ligation, 28 days; control higher than 3.0; p<0.001
Description: Arteries are vessels that carry blood away from the heart. The carotid arteries are blood vessels that supply blood to the head, neck and brain. One carotid artery is position on each side of the neck. The right common carotid artery branches from the brachiocephalic artery and extends up the right side of the neck. The left common carotid artery branches from the aorta and extends up the left side of the neck. Each carotid artery branches into internal and external vessels near the top of the thyroid. Following the study by Hsing-Chun Chung (Dissertation, 2008, Southern Taiwan University), the carotid artery ligation was conducted on the left common carotid artery in mice to induce neointimal thickening.
This experiment used 8-week-old C57BL/6J male mice having about 25 g of body weight, which were purchased from National Laboratory Animal Center. These mice were maintained at the Laboratory Animal center of National Defense Medical Center on a 12 hour dark/12 hour light cycle in air conditional rooms (18-26° C., 30%-70% humidity).
1. The animals were given Compound 1 by oral gavage three days prior to the surgery and were continuously fed with Compound 1 for 28 days by oral gavage.
2. […]

[5] = test system: PDGF-stimulated A7r5 cells; test: PDGF-stimulated smooth muscle cell proliferation, MTT assay; assay type: cell-based, Rattus norvegicus; settings: 3 μg/ml, 20 hours pretreatment, PDGF 24 hours
Description: as §1, §3
2. Dosing: 500 ul/well different concentrations of compound 1 were pretreated in culture medium containing 1% FBS/DMEM for 20 hours. […]
3. […] The survival rate of cells was calculated based on the measurement of absorption at the 570 nm wavelength by ELISA reader. […]

## COC1=C(OC)C(O)C(C/C=C(\C)CC/C=C(\C)CCC=C(C)C)C(C)C1=O (centres unmarked) [Compound 1, 4-hydroxy-2,3-dimethoxy-6-methyl-5-(3,7,11-trimethyldodeca-2,6,10-trienyl)cyclohex-2-enone]
[1]
  survival rate of cells (MTT assay): cell purification was not affected by the drug treatment
LDLR mRNA
  time at which LDLR mRNA expression was first increased: 2 h
LDLR mRNA; increased up to 6 h
  time at which the LDLR mRNA increase reached a significant level: 4 h
ERK1/2
  concentration enough to induce activation of ERK1/2: 0.5 µM
[2]
  cytotoxicity (LDH assay): no cytotoxcity has been observed
[3]
  decrease in PDGF-stimulated smooth muscle cell migration: about 50%
[4]
  average N/M ratio (neointima area/medial area): 1.0
[5]
  reduction of PDGF-stimulated smooth muscle cell proliferation: about 50%
